Source: paper PMC8388802, “Study on the Structure-Activity Relationship of an Antimicrobial Peptide, Brevinin-2GUb, from the Skin Secretion of Hylarana guentheri” (Antibiotics, 2021)
≈ marks a conversion by molar mass, not a printed value. Where a SMILES comes first, the peptide text is derived from it. Where no end group is shown, it is not given here.

Key:
[1] = system: enteroaggregative E. coli; settings: cited from earlier work
Source text: Due to the influence of physiological factors, there may be some difference between the antimicrobial activity in vitro and in vivo [41]. Consistent with the haemolysis assay and cytotoxicity assay results, Brevinin-2GUb is much harmful to the wax moth than tB2U-K and tB2U-6K. […] In our study, with the increase of the number of net charges, the survival rate of E. coli-infected wax moth is enhanced and the ability o ...

[2] = system: K. pneumoniae (ATCC 43816); assay type: cell-based, Klebsiella pneumoniae
Protocol: (§1) The method of antimicrobial assay is based on the Methods for Dilution Antimicrobial Susceptibility Tests for Bacteria that Grow Aerobically from the Clinical and Laboratory Standards Institute (CLSI).The antimicrobial activities of peptides were evaluated against Gram-positive bacteria S. aureus (ATCC 6538), MRSA (NCTC 12493), E. faecalis (NCTC 12493), Gram-negative bacteria E. coli (ATCC CRM 8739), K. pneumoniae (ATCC 43816), P. aeruginosa (ATCC CRM 9027), yeast C. albicans (ATCC CRM 10231) and clinical isolates MRSA (B042 V2E1 A), E. coli (ATCC BAA-2340), K. pneumoniae (ATCC BAA-1705), P. aeruginosa (B004 V2S2 B).
(§2) At the first stage of the assay, 20 μL bacteria were cultured in 100 mL Mueller Hinton Broth (MHB) or Yeast Extract–Peptone–Dextrose broth (YPD-B), respectively, and was incubated overnight. Then, microorganisms were subcultured in 20 mL fresh MHB or YPD-B to achieve cultures in the logarithmic phase (1 × 10^8 CFU/mL), which can be verified by optical density (OD) (The OD of Gram-positive bacteria is 0.23, OD of Gram-negative bacteria is 0.4, and OD of yeast is 0.15), and viable cell counts. Then, the medium was used to dilute the cultures to specific cell densities (Gram-negative and Gram-positive bacteria: 5 × 10^5 CFU/mL; yeast: 1 × 10^6 CFU/mL), which were the final concentrations of bacterial suspensions used in the assay. The peptides were dissolved in DMSO to reach a final concentration of 512 µM. A series of two-fold dilutions ranging from 512 µM to 1 µM were dosed in the 96-well plates.
(§3) Antimicrobial assays were conducted in 96-well plates, which were divided into five groups, including a negative control group (PBS), a positive control group (20 μg/mL norfloxacin for bacteria and 10 μg/mL amphotericin B for yeast), vehicle control (1% DMSO), blank control (MHB or YPD-B), and a peptide group. Each microorganism had five repetitions, and each well contained 1 µL corresponding solution and 99 µL culture. After incubation at 37 °C overnight, the absorbance of each well was tested by a microplate reader (EL808, Biolise BioTek Winooski, Minneapolis, USA) under a 550 nm wavelength. The MIC is the lowest concentration at which no bacterial growth can be observed.
(§4) The next day, 10 µL of every clear well was taken out to be cultured on a Mueller Hinton Agar (MHA) plate and incubated at 37 °C for 16–20 h. The MBC is the lowest concentration without any bacterial colonies, which means at this concentration, the peptide reduces the viability of the pathogen by more than 99.9%.

[3] = system: K. pneumoniae (ATCC BAA-1705); assay type: cell-based, Klebsiella pneumoniae
Protocol: as §1, §2, §3, §4

[4] = system: S. aureus (ATCC 6538) biofilm; assay type: cell-based, Staphylococcus aureus; settings: ATCC 6538, 24 h
Protocol: (§5) The anti-biofilm activities of the peptides against S. aureus (ATCC 6538), MRSA (NCTC 12493), E. faecalis (NCTC 12493), E. coli (ATCC CRM 8739), K. pneumoniae (ATCC 43816), and P. aeruginosa (ATCC CRM 9027) were evaluated.
(§6) The bacteria were inoculated in a different medium (Gram-positive bacteria were in TSB and Gram-negative bacteria were in LB) overnight, and the subculture was conducted in the same medium. When the bacteria reached a specific density, 100 µL of the dilution was added to each well of the 96-well microplate. Then 1 µL of peptide at a series of concentrations, the same concentration in the antimicrobial assay, were added into the well together with the bacteria. The plates were put into a moist shaking incubator with a speed of 200 rpm, and the temperature was set at 37 ℃. After a 24-h incubation, the liquid in the wells was aspirated, and each was washed twice by 100 µL PBS. One hundred µL of methanol were added into each well to stabilise the biofilm. After air-drying, 100 µL crystal violet was used to dye the biofilm, and they were dissolved in the 100 µL glacial acidic acid after drying. The solutions were transferred to a new microplate, and the absorbance of each well was tested by a microplate reader (EL808, Biolise BioTek Winooski, Minneapolis, MN, USA) at 595 nm wavelength. MBIC was the minimum concentration of the peptide showing no biofilm formation.
(§7) The bacteria were inoculated in a different medium (Gram-positive bacteria were in TSB and Gram-negative bacteria were in LB) overnight, and the subculture was conducted in the same medium. When the bacteria reached a specific density, 100 µL of the dilution was added to each well of the 96-well microplates. The plates were put into a moist shaking incubator with a speed of 200 rpm and the temperature was 37 ℃. After a 24 h incubation, the liquid in the wells was aspirated and they were washed twice by 100 µL PBS of each well. The peptides with the same concentrations were diluted in the corresponding medium and 100 µL were added into each well. After a 24-h incubation, the liquid in the wells was aspirated and they were washed twice by 100 µL PBS. One hundred µL of methanol were added into the wells to stabilise the biofilms. After being air-dried, 100 µL crystal violet was used to dye the biofilm, and they were dissolved in the 100 µL glacial acidic acid after drying. The solutions were transferred to a new microplate, and the absorbance of each well was tested by a microplate reader (EL808, Biolise BioTek Winooski, Minneapolis, USA) at 595 nm wavelength.

E. faecalis (NCTC 12493) = assay type: cell-based, Enterococcus faecalis
Protocol: as §1, §2, §3, §4

[5] = system: E. faecalis (NCTC 12493) biofilm; assay type: cell-based, Enterococcus faecalis; settings: NCTC 12493, 24 h
Protocol: as §5, §6, §7

MRSA (NCTC 12493) = assay type: cell-based, Methicillin-resistant Staphylococcus aureus
Protocol: as §1, §2, §3, §4

MRSA (B042 V2E1 A) = assay type: cell-based, Methicillin-resistant Staphylococcus aureus
Protocol: as §1, §2, §3, §4

E. coli (ATCC CRM 8739) = assay type: cell-based, Escherichia coli
Protocol: as §1, §2, §3, §4

E. coli (ATCC BAA-2340) = assay type: cell-based, Escherichia coli
Protocol: as §1, §2, §3, §4

[6] = system: E. coli (ATCC CRM 8739) biofilm; assay type: cell-based, Escherichia coli; settings: ATCC CRM 8739, 24 h
Protocol: as §5, §6, §7

[7] = system: wax moth (Galleria mellonella); assay: Toxicity of peptides to waxworms; assay type: in vivo; settings: uninfected waxworms, when the concentration reached 15 mg/kg
[8] = system: P. aeruginosa (B004 V2S2 B); assay type: cell-based, Pseudomonas aeruginosa
Protocol: as §1, §2, §3, §4

[9] = system: P. aeruginosa (ATCC CRM 9027); assay type: cell-based, Pseudomonas aeruginosa
Protocol: as §1, §2, §3, §4

[10] = system: MRSA (NCTC 12493) biofilm; assay type: cell-based, Methicillin-resistant Staphylococcus aureus; settings: NCTC 12493, 24 h
Protocol: as §5, §6
The bacteria were inoculated in a different medium (Gram-positive bacteria were in TSB and Gram-negative bacteria were in LB) overnight, and the subculture was conducted in the same medium. When the bacteria reached a specific density, 100 µL of the dilution was added to each well of the 96-well microplates. The plates were put into a moist shaking incubator with a speed of 200 rpm and the temperature was 37 ℃. […] The solutions were transferred to a new microplate, and the absorbance of each well was tested by a microplate reader (EL808, Biolise BioTek Winooski, Minneapolis, USA) at 595 nm wavelength.

[11] = system: C. albicans (ATCC CRM 10231); assay type: cell-based, Candida albicans
Protocol: as §1, §2, §3, §4

S. aureus (ATCC 6538) = assay type: cell-based, Staphylococcus aureus
Protocol: as §1, §2, §3, §4

[12] = system: K. pneumoniae (ATCC 43816) biofilm; assay type: cell-based, Klebsiella pneumoniae; settings: ATCC 43816, 24 h
Protocol: as §5, §6, §7

[13] = system: P. aeruginosa (ATCC CRM 9027) biofilm; assay type: cell-based, Pseudomonas aeruginosa; settings: ATCC CRM 9027, 24 h
Protocol: as §5, §6, §7

Indolicidin (ILPWKWPWWPWRR; ends and bridges not checked; UniProt P33046 131-143, looked up) [antimicrobial peptide of a previous study in Galleria mellonella]
survival rate of Galleria mellonella infected by the enteroaggregative E. coli [1]: up to 95%

CC[C@H](C)[C@H](NC(=O)[C@@H](NC(=O)CN)C(C)C)C(=O)N[C@H](C(=O)N[C@@H](CC(=O)O)C(=O)N[C@H](C(=O)N[C@@H](CC(C)C)C(=O)N[C@@H](CCCCN)C(=O)NCC(=O)N[C@@H](C)C(=O)N[C@@H](C)C(=O)N[C@@H](CCCCN)C(=O)N[C@H](C(=O)N[C@H](C(=O)N[C@@H](C)C(=O)N[C@@H](C)C(=O)N[C@@H](CCC(=O)O)C(=O)N[C@@H](CC(C)C)C(=O)N[C@@H](CC(C)C)C(=O)N[C@@H](CCCNC(=N)N)C(=O)N[C@@H](CCCCN)C(=O)N[C@@H](C)C(=O)N[C@@H](Cc1c[nH]cn1)C(=O)N[C@H]1CSSC[C@@H](C(=O)O)NC(=O)[C@H](CO)NC(=O)[C@H](CC(N)=O)NC(=O)[C@H]([C@@H](C)O)NC(=O)[C@H](CC(C)C)NC(=O)[C@H](CCCCN)NC1=O)C(C)C)[C@@H](C)O)[C@@H](C)O)[C@@H](C)CC [Brevinin-2GUb] (HELM PEPTIDE1{G.V.I.I.D.T.L.K.G.A.A.K.T.V.A.A.E.L.L.R.K.A.H.C.K.L.T.N.S.C}$PEPTIDE1,PEPTIDE1,24:R3-30:R3$$$V2.0)
MBC [2]: 128 µM (≈ 400 µg/mL)
MIC [2]: 128 µM (≈ 400 µg/mL)
MBC [3]: 512 µM (≈ 1600 µg/mL)
MIC [3]: 512 µM (≈ 1600 µg/mL)
MBEC [4]: > 512 µM
MBIC [4]: 256 µM
MBC (E. faecalis (NCTC 12493)): >512 µM
MIC (E. faecalis (NCTC 12493)): >512 µM
MBEC [5]: >512 µM
MBIC [5]: >512 µM
MBC (MRSA (NCTC 12493)): >512 µM
MIC (MRSA (NCTC 12493)): >512 µM
MBC (MRSA (B042 V2E1 A)): >512 µM
MIC (MRSA (B042 V2E1 A)): >512 µM
MBC (E. coli (ATCC CRM 8739)): 16 µM (≈ 50 µg/mL)
MIC (E. coli (ATCC CRM 8739)): 16 µM (≈ 50 µg/mL)
MBC (E. coli (ATCC BAA-2340)): 32 µM (≈ 100 µg/mL)
MIC (E. coli (ATCC BAA-2340)): 32 µM (≈ 100 µg/mL)
MBEC [6]: > 512 µM
MBIC [6]: 128 µM
toxicity to waxworms [7]: modest toxicity
MBC [8]: >512 µM
MIC [8]: >512 µM
MBC [9]: 512 µM (≈ 1600 µg/mL)
MIC [9]: 128 µM (≈ 400 µg/mL)
MBIC [10]: 256 µM
MBC [11]: >512 µM
MIC [11]: >512 µM
MBC (S. aureus (ATCC 6538)): 32 µM (≈ 100 µg/mL)
MIC (S. aureus (ATCC 6538)): 32 µM (≈ 100 µg/mL)
MBEC [12]: >512 µM
MBIC [12]: >512 µM
MBEC [13]: >512 µM
MBIC [13]: >512 µM
